Source: patent US5837728A, “9-cis retinoic acid esters and amides and uses thereof” (priority 1995, dated 1998)

Experiments:
[1] = system: pseudocomedone (utriculus) of the rhino mouse; test: Topical rhino mouse pseudocomedone (utriculus) reduction assay; type: in vivo; parameters: Utriculus reduction (Table 1) / Utriculus reduction (Table 3): key to the marks not given beside the values; conditions: concentration 0.1 (unit not given)
Method: A topical assay to test for pseudocomedone (utriculus) reduction in the rhino mouse is conducted.
Each test compound and a vehicle control is applied topically to the dorsal trunk of the rhino mouse. The utriculus diameters are measured with a ocular micrometer. […] Kligman, et al., The Effect on Rhino Mouse Skin of Agents which Influence Keratinization and Exfoliation, J. Invest. Derm. […] Van Scott, Experimental Animal Integumental Models for Screening Potential Dermatologic Drugs, In Pharmacology of the Skin, eds. […] Mann, Hair Loss and Cyst Formation in Hairless and Rhino Mutant Mice, Anat. Rec. […] Mezick, et al., Topical and Systemic Effects of Retinoids on Horn-Filled Utriculus Size in the Rhino Mouse. A Model to Quantify Antikeratinizing Effects of Retinoids, J. Invest. Derm. […] Mezick, et al., Anti-Acne Activity of Retinoids in the Rhino Mouse, In Models in Dermatology, eds.
(§1) The dorsal trunk of the rhino mouse is the test site. Each test compound is dissolved in alcohol:propylene glycol (70:30, v:v) or other suitable vehicle and topically applied (0.1 ml) to the dorsal trunk once daily, five consecutive days/week for two weeks. Also, administration may be oral (p.o.) in a suitable vehicle. Following treatment, the animals are sacrificed by cervical dislocation. The treated dorsal trunk skin is removed from the animal and placed into 0.5% acetic acid for up to 18 hours at approximately 4° C. After this, the epidermis with the acne cysts is separated from the underlying dermis. The sheets of epidermis are processed by routine methods to permanent whole mounts for microscopic examination. Also, full-thickness samples may be taken, stained (H&E), and examined by light microscopy.
The utriculus diameters are measured with an ocular micrometer to compare effects of test compounds to vehicle control and/or reference compound on cyst reduction. Light microscopy is used to determine effects on cell differentiation.
Another topical assay is conducted following the procedure described above.
Each test compound and a vehicle control was applied topically to the dorsal trunk of the rhino mouse. The utriculus diameters are measured with a ocular micrometer. […] Kligman, et al., J. Invest. […] Van Scott, Pharmacology of the Skin, eds. […] Mann, Anat. […] Mezick, et al, J. Invest. […] Mezick et al., Models in Dermatology, eds.
as §1, with “(70:30,v:v)” for “(70:30, v:v)”, “weeks.” for “weeks. Also, administration may be oral (p.o.) in a suitable vehicle.”, “"acne cysts"” for “acne cysts”, “are” for “may be”, “(H&E)” for “(H&E),”, “microscope.” for “microscopy.”

[2] = system: ornithine decarboxylase (ODC); test: ODC/Retinoid Bioassay: inhibition of TPA induced ornithine decarboxylase activity; type: in vivo, CD-1 mice; conditions: for ODC activity reduction: topical, 1.7 nM (as printed in Table 2), TPA induced
Method: The ODC/Retinoid Bioassay is based on the method of Verma, A. K. and Boutwell, R. K., Cancer Res. (1977) 37:2196-2201. The ODC assay measures a compounds effect on the prevention of the induction of ODC, namely the effect of the retinoid compound on the inhibition of the tumor promoter 12-O-tetradecanoylphorbol-13-acetate (TPA) induced ODC activity. The assay is carried out using CD-1 mice (aged 7 to 9 weeks). The dorsal hair of the mice is shaved 3-4 days before testing. Four mice are used for each point. The test retinoids, at one of two dose levels (1.7 and 17 nmoles) dissolved in 0.2 ml of acetone is applied topically to the back of each shaved mouse. A single dose of TPA ([…]) is applied to the back of each treated mouse 30 minutes later. Control groups are treated with either acetone alone, TPA, or tretinoin. The mice are sacrificed by cervical dislocation 5 hours after TPA treatment.
The dorsal skin encompassing the shaved and TPA exposed area is excised and placed in a 100 ml beaker containing distilled water maintained at 51° C.-57° C. The skin is soaked for 50-70 seconds at this temperature with intermittent stirring. The skin is placed epidermis side up in a chilled (0°-5° C.) stainless steel plate and the epidermal layer is scraped off with a razor blade. The epidermal layers from the 4 mice are pooled and placed in a homogenization tube with 2 ml of ODA buffer ([…] with […] pyridoxal phosphate, […] ethylenediaminetetraacetic acid (EDTA), 1 mM dithiothreitol, pH 7.5). The pooled epidermal layers are homogenized for 15 seconds at 0° C. using a Polytron homogenizer at a setting of 7.5. The homogenate is centrifuged at 30,000×g and the supernatant fraction is pipetted into a storage tube and frozen for about 72 hours.
The homogenate is assayed for ODC activity as described by Verma and Boutwell to measure the release of ^14 CO2 from labeled DL(1-14C) ornithine. Incubations are carried out in disposable centrifuge tubes with center well holders containing filter paper impregnated with sodium hydroxide to absorb ^14 CO2. The incubation mixture consisted of 90 μl of L-ornithine, 350 μl of ODC buffer, 100 μl of 14C-ornithine (1.32 nm, Sp. Act:4.4 pCi/pM) and 10 μl of test sample. After incubation at 37° C. for 45 minutes, 0.5 ml of 2M chilled citric acid (4° C.) is added and incubation is continue for an additional 30 minutes to insure complete absorption of ^14 CO2. The filter paper is removed from the center well holders and set in 1 ml of water in capped scintillation vials for at least 1 hour before adding RBI 3820 scintillation cocktail. Radioactivity is measured in a Tri Carb Scintillation Counter. Results are expressed as pmol of ^14 CO2 released in 30 minutes per milligram of protein based on the specific activity of DL-14C-ornithine. The results are expressed in Table 2 below as the % reduction in ODC activity as compared to the control, for the compounds of each of the preceding Examples: […]

[3] = system: Human neonatal foreskin keratinocytes; test: Growth of human neonatal foreskin keratinocytes (cell number); type: cell-based; conditions: for Number of keratinocytes, KGM / Number of keratinocytes, KMB: three days
Excerpt: (§2) Human neonatal foreskin keratinocytes and human neonatal foreskin fibroblasts were isolated and grown in monlayer culture. Culture medium for keratinocytes was Keratincyte Growth Medium (KGM) from Clonetics, Inc., San Diego. Calif. The culture medium for fibroblasts was Dulbecco's Modified Eagle's Medium (DMEM) supplemented with non-essential amino acids and 10% fetal bovine serum. The culture medium was obtained from GIBCO, Grand Island, N.Y. and the FBS was from Hyclone Labs, Inc., Logan, Utah.
Cells at passage 2-4 were plated in wells of a 24 well dish at approximately 5×10^4 cells per well in their respective culture medium. Incubation was at 37° C. with 5% CO2. After the cells attached and spread overnight, they were washed two times in serum-free keratincyte basal medium (KBM) and incubated in 1 ml of KBM or in 1 ml of KGM. Compound IV was added in varying concentrations to the wells. […] The cells were incubated for an additional two days for fibroblasts and three days for keratinocytes, and were then harvested and counted.

[4] = system: Human neonatal foreskin fibroblasts; test: Growth of human neonatal foreskin fibroblasts (cell number); type: cell-based; conditions: for Number of fibroblasts: two days
Excerpt: as §2
Cells at passage 2-4 were plated in wells of a 24 well dish at approximately 5×10^4 cells per well in their respective culture medium. Incubation was at 37° C. with 5% CO2. After the cells attached and spread overnight, they were washed two times in serum-free keratincyte basal medium (KBM) and incubated in 1 ml of KBM or in 1 ml of KGM. Compound IV was added in varying concentrations to the wells. All-trans-retinoic acid (or no treatment) was added to control wells. The cells were incubated for an additional two days for fibroblasts and three days for keratinocytes, and were then harvested and counted. The effect of IV and of the controls are shown for both cell types in Tables 9 and 10: […]

## CC1=C(/C=C/C(C)=C\C=C\C(C)=C\C(=O)ON2C(=O)CCC2=O)C(C)(C)CCC1 [Compound 10, Succinimidyl 9-cis-retinoate]
[1]
  Utriculus reduction (Table 3): ++
[2]
  ODC activity reduction: +++

## CC1=C(/C=C/C(C)=C\C=C\C(C)=C\C(=O)OCOC(=O)C(C)(C)C)C(C)(C)CCC1 [Compound 6, 9-cis-retinoyloxymethyl 2,2-dimethylpropanoate]
[1]
  Utriculus reduction (Table 3): +++
[2]
  ODC activity reduction: +++

## CC1=C(/C=C/C(C)=C\C=C\C(C)=C\C(=O)OCC(=O)COC(=O)/C=C(C)/C=C/C=C(C)\C=C\C2=C(C)CCCC2(C)C)C(C)(C)CCC1 [Compound 4, 1,3-bis-(9-cis-retinoyloxy)-2-propanone]
[2]
  ODC activity reduction: +++

## CC1=C(/C=C/C(C)=C\C=C\C(C)=C\C(=O)OCC(=O)c2ccccc2)C(C)(C)CCC1 [Compound 5, 9-cis-retinoyloxy methyl phenyl ketone]
[1]
  Utriculus reduction (Table 3): ++
[2]
  ODC activity reduction: ++

## CCCCCCCCCCCCCC(=O)O[C@@H]1[C@@H](C)[C@@]2(O)[C@@H](C=C(CO)C[C@]3(O)C(=O)C(C)=C[C@@H]23)[C@@H]2C(C)(C)[C@]12OC(C)=O [TPA, 12-O-tetradecanoylphorbol-13-acetate, reference compound]
[2]; TPA 17.0 nM, control
  ODC activity reduction (TPA control): 0 nM ^14 CO2 /30 min/mg Protein

## CC1=C(/C=C/C(C)=C\C=C\C(C)=C\C(=O)OCC(=O)C(C)(C)C)C(C)(C)CCC1 [Compound IV]
[3]; 0.10 μg/ml
  Number of keratinocytes, KGM: 27.4 ± 0.1 × 10^4 cells
  Number of keratinocytes, KMB: 13.1 ± 0.5 × 10^4 cells
[3]; 0.25 μg/ml
  Number of keratinocytes, KGM: 25.9 ± 0.4 × 10^4 cells
[3]; 0.5 μg/ml
  Number of keratinocytes, KGM: 22.5 ± 0.1 × 10^4 cells
  Number of keratinocytes, KMB: 13.8 ± 2.4 × 10^4 cells
[3]; 1.0 μg/ml
  Number of keratinocytes, KGM: 21.2 ± 0.8 × 10^4 cells
  Number of keratinocytes, KMB: 14.0 ± 0.9 × 10^4 cells
[3]; 5.0 μg/ml
  Number of keratinocytes, KGM: 6.4 ± 0.1 × 10^4 cells
  Number of keratinocytes, KMB: 11.2 ± 1.2 × 10^4 cells
[3]; 10.0 μg/ml
  Number of keratinocytes, KGM: 4.5 ± 0.2 × 10^4 cells
  Number of keratinocytes, KMB: 8.4 ± 0.2 × 10^4 cells
[3]; compared with retinoic acid
  Effect on keratinocytes (summary of Tables 9 and 10): potent "retinoid" effect on keratinocytes
[4]; 0.1 μg/ml
  Number of fibroblasts: 6.4 ± 0.6 × 10^4 cells
[4]; 0.25 μg/ml
  Number of fibroblasts: 5.8 ± 0.1 × 10^4 cells
[4]; 0.5 μg/ml
  Number of fibroblasts: 5.5 ± 0.8 × 10^4 cells
[4]; 1.0 μg/ml
  Number of fibroblasts: 7.9 ± 0.1 × 10^4 cells
[4]; 5.0 μg/ml
  Number of fibroblasts: 8.5 ± 0.6 × 10^4 cells
[4]; 10.0 μg/ml
  Number of fibroblasts: 7.5 ± 0.9 × 10^4 cells
[4]; compared with retinoic acid
  Effect on fibroblasts (summary of Tables 9 and 10): less active result with fibroblasts

## CCCCCCCC/C=C\CCCCCCCC(=O)OCC(COC(=O)/C=C(C)/C=C/C=C(C)\C=C\C1=C(C)CCCC1(C)C)OC(=O)CCCCCCC/C=C\CCCCCCCC (stereo not drawn) [Compound 9, 1-(9-cis-retinoyloxy)-2,3-dioleoylpropane]
[2]
  ODC activity reduction: ++

## CC1=C(/C=C/C(C)=C\C=C\C(C)=C\C(=O)OCC(=O)CO)C(C)(C)CCC1 [Compound 8, 1-(9-cis-retinoyloxy)-3-hydroxy-2-propanone]
[2]
  ODC activity reduction: +++
